From patent US20240003908A1, “POLYOL BIOMARKERS FOR CONGENITAL DISORDERS OF GLYCOSYLATION” (Mayo Foundation for Medical Education and Research, priority 2020, published 2024)

System: child with PMM2-CDG
Assay: Single patient (P1) study: clinical efficacy (ICARS, NPCRS, BMI, weight)
Type: in vivo, human
Settings: same patient, five months acetazolamide before epalrestat; from 66
Procedure: Prospectively collected clinical and laboratory data in 24 PMM2-CDG patients: The genetic, laboratory, metabolic, and clinical data of 24 PMM2-CDG patients were evaluated (TABLES 2A and 2B). Disease severity was assessed by Nijmegen Pediatric CDG Rating Scale (NPCRS), (most severe=82; mild (0-14), moderate (15-25), severe (>26)) (Achouitar et al., J Inherit Metab Dis 34:923-927, 2011; and Martinez-Monseny et al., Ann Neurol 85:740-751, 2019). Patient P1 and twin patients P4 and P5 also were discussed elsewhere (Qian et al., JIMD Rep 56:27-33, 2020; and Jaeken et al., Ped Res 14:179, 1980). P1, enrolled in a single IND clinical trial, was additionally evaluated by the International cooperative ataxia rating scale (ICARS) (Trouillas et al., J Neurol Sci 145:205-211, 1997), which assesses limb ataxia, dysarthria, posture and gait disturbances, and oculomotor disorders (0=normal; 100=most severe). Urinary polyols including sorbitol and mannitol were analyzed by GC/MS in 23 out of the 24 PMM2-CDG patients (patient P6 was deceased). In addition, functional in vitro data was collected from the fibroblasts of P1-P6, P8, P10, P17, P19, and P24.
Study design: An open label, single patient (P1) compassionate use study was designed to assess the safety and tolerability of oral epalrestat therapy in a child with PMM2-CDG.
Patient assessment: Prior to the first dose of epalrestat and at 1, 2, 3, 6, 8, 9, 12 months during treatment, concomitant medications and vital signs were recorded and the patient was evaluated using the NPCRS. In addition, blood was drawn for serum chemistry, hematology, and plasma levels of epalrestat. Urine was collected for polyol measurement at baseline and twice over the course of 12 months of therapy.
Drug administration: Epalrestat was administered orally, 3 times per day (TID) before meals in a divided dose (0.8 mg/kg/day; 5 mg TID) of epalrestat (Ono Pharmaceuticals, Osaka, Japan) starting on Day 1 of the study.
Safety and efficacy: Safety measures included vital signs, change in CBC, liver function (INR, bilirubin, transaminases, and albumin) in blood, change in liver elastography, and following the pharmacokinetic profile of epalrestat. The efficacy of epalrestat was studied by clinical follow up (physical exam, NPCRS, ICARS), standard laboratory tests, and transferrin glycoform analysis by mass spectrometry.

## CC(=O)Nc1nnc(S(N)(=O)=O)s1 [acetazolamide]
  ICARS score: 56
